From the kinase profiling compilation of Christmann-Franck et al. (2016)

What was measured:
Test in all cases: radiometric filter-binding kinase assay
[1] = target: MAPK9 (human) (UniProt P45984)
[2] = target: MAP3K11 (human) (UniProt Q16584)
[3] = target: NUAK1 (human) (UniProt O60285)
[4] = target: IKBKE (human) (UniProt Q14164)
[5] = target: TTK (human) (UniProt P33981); details: compound 1.0 µM
[6] = target: MARK3 (human) (UniProt P27448)
[7] = target: DYRK1A (human) (UniProt Q13627)
[8] = target: CHEK2 (human) (UniProt O96017)
[9] = target: MAPK8 (human) (UniProt P45983)
[10] = target: STK11 CAB39 STRADA (human) (UniProt Q9Y376+Q7RTN6+Q15831)
[11] = target: STK3 (human) (UniProt Q13188)
[12] = target: MARK1 (human) (UniProt Q9P0L2)
[13] = target: EPHB2 (human) (UniProt P29323)
[14] = target: TBK1 (human) (UniProt Q9UHD2)
[15] = target: CaMK1 (human) (UniProt Q14012)
[16] = target: IRAK4 (human) (UniProt Q9NWZ3)
[17] = target: PIM1 (human) (UniProt P11309)
[18] = target: MARK2 (human) (UniProt Q7KZI7)
[19] = target: JAK2 JH1 JH2 (human) (UniProt O60674)
[20] = target: MAPK14 (human) (UniProt Q16539)
[21] = target: DYRK3 (human) (UniProt O43781)
[22] = target: MAPK3 (human) (UniProt P27361)
[23] = test system: RPS6KB1 (human), P23443 [T412E]
[24] = target: MAPKAPK2 (human) (UniProt P49137)
[25] = target: MKNK2 (human) (UniProt Q9HBH9)
[26] = target: NEK6 (human) (UniProt Q9HC98)
[27] = target: PAK4 (human) (UniProt O96013)
[28] = test system: AKT1 (human), P31749 [S473D]
[29] = target: NEK2 (human) (UniProt P51955)
[30] = target: MKNK1 (human) (UniProt Q9BUB5)
[31] = target: MAP2K1 (human) (UniProt Q02750)
[32] = target: CSNK1D (human) (UniProt P48730)
[33] = target: RPS6KA1 KD1 KD2 (human) (UniProt Q15418)
[34] = target: IKBKB (human) (UniProt O14920)
[35] = target: NTRK1 (human) (UniProt P04629)

NEK2 (human), sequence (P51955 whole entry, looked up): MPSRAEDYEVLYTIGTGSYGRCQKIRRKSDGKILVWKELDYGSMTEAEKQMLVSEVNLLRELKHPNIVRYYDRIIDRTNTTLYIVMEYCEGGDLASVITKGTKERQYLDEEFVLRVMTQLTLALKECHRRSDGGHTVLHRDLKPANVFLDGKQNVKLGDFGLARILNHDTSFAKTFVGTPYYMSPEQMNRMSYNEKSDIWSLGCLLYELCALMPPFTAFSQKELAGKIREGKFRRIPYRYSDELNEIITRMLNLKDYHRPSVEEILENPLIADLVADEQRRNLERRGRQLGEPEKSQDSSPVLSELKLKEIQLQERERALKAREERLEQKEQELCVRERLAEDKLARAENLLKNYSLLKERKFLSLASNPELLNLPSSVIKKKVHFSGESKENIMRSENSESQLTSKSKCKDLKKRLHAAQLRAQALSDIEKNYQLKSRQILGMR
RPS6KA1 KD1 KD2 (human), sequence (Q15418 whole entry, looked up): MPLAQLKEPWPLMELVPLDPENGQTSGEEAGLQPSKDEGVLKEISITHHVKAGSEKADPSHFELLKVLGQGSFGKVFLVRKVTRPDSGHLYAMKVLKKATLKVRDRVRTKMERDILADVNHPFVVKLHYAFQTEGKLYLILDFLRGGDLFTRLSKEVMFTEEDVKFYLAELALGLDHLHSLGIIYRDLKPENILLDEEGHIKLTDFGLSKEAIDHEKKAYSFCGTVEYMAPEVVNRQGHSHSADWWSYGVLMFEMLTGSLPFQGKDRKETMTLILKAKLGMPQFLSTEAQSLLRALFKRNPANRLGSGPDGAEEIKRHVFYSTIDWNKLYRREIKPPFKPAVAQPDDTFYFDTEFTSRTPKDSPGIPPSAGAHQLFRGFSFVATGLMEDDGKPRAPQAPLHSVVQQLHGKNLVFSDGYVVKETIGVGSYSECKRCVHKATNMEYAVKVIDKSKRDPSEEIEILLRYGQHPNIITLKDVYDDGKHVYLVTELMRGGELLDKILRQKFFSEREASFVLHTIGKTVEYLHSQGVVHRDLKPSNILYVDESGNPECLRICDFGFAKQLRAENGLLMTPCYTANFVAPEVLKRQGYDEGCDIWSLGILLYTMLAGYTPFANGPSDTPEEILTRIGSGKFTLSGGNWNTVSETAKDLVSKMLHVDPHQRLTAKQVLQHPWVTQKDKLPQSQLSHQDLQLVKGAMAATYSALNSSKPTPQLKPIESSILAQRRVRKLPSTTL
IRAK4 (human), sequence (Q9NWZ3 whole entry, looked up): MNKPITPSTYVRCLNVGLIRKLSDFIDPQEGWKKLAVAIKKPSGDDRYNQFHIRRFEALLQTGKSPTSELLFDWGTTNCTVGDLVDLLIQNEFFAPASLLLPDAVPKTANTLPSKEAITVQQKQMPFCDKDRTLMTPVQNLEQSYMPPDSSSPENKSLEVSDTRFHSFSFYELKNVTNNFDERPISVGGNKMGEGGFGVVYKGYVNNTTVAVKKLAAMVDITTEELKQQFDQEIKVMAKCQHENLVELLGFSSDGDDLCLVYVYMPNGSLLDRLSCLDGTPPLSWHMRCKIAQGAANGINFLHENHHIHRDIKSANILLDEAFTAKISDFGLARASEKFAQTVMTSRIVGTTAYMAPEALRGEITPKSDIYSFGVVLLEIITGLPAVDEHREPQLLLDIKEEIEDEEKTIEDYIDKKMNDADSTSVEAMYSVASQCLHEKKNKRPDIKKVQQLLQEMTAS
NUAK1 (human), sequence (O60285 whole entry, looked up): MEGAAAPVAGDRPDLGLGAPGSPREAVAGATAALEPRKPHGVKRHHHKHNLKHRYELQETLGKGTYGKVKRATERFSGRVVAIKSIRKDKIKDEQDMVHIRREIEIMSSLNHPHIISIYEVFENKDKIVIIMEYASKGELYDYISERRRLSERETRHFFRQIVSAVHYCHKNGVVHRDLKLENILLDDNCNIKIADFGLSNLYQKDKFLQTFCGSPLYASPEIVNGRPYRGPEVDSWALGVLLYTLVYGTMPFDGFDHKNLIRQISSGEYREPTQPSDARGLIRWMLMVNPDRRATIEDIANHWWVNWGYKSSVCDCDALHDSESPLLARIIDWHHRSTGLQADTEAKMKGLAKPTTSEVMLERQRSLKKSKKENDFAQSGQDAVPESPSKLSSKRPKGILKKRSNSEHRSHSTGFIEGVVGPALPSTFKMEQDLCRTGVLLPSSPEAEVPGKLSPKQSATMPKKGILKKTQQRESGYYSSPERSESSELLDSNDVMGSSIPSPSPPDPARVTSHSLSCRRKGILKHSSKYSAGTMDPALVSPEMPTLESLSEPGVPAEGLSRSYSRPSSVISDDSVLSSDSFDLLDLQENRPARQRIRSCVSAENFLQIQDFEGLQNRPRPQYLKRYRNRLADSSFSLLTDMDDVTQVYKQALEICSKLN
IKBKE (human), sequence (Q14164 whole entry, looked up): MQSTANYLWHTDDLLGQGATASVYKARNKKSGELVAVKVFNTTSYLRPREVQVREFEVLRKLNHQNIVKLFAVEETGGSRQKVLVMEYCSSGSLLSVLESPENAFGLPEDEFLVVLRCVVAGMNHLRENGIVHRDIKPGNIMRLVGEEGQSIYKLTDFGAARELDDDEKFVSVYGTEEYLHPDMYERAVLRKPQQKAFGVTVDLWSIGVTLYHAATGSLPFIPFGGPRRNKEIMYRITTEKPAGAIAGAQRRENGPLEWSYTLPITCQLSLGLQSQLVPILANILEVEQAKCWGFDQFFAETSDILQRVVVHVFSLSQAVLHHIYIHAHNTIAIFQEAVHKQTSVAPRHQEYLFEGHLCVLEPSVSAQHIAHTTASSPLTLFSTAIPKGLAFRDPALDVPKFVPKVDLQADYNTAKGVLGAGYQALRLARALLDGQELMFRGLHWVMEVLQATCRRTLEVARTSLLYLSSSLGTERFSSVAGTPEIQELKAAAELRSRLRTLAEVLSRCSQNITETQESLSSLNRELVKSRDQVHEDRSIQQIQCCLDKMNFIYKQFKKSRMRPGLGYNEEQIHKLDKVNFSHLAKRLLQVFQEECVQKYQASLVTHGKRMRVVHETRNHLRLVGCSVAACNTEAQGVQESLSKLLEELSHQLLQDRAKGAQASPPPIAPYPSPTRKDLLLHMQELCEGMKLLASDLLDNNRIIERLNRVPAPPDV
DYRK3 (human), sequence (O43781 whole entry, looked up): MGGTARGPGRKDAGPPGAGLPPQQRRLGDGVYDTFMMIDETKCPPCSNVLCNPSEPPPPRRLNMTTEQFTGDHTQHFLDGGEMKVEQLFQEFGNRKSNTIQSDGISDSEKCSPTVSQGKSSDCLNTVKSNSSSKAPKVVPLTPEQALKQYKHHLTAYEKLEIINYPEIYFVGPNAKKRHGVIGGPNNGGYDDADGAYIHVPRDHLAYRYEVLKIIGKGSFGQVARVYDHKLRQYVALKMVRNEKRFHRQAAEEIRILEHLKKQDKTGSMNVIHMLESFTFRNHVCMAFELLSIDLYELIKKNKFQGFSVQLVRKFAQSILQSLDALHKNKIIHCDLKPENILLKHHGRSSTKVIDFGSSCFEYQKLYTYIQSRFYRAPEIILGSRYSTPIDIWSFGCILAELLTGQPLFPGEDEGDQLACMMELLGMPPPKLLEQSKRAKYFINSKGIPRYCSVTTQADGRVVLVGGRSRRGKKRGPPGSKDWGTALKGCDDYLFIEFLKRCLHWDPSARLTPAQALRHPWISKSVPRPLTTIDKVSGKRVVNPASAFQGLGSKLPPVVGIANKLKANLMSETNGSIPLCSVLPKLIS
MKNK1 (human), sequence (Q9BUB5 whole entry, looked up): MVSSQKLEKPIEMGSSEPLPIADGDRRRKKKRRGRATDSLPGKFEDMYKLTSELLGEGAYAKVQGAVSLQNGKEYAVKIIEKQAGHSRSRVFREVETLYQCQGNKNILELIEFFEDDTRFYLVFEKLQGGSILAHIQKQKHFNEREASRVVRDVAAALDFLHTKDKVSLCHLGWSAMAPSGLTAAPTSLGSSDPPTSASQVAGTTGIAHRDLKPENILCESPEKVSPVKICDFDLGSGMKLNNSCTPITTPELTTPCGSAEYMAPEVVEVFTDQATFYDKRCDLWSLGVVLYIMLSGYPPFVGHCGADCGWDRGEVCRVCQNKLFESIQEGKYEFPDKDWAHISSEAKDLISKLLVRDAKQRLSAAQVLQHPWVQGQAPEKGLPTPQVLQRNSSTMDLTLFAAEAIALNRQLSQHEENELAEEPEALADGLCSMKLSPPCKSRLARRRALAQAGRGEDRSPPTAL
MARK2 (human), sequence (Q7KZI7 whole entry, looked up): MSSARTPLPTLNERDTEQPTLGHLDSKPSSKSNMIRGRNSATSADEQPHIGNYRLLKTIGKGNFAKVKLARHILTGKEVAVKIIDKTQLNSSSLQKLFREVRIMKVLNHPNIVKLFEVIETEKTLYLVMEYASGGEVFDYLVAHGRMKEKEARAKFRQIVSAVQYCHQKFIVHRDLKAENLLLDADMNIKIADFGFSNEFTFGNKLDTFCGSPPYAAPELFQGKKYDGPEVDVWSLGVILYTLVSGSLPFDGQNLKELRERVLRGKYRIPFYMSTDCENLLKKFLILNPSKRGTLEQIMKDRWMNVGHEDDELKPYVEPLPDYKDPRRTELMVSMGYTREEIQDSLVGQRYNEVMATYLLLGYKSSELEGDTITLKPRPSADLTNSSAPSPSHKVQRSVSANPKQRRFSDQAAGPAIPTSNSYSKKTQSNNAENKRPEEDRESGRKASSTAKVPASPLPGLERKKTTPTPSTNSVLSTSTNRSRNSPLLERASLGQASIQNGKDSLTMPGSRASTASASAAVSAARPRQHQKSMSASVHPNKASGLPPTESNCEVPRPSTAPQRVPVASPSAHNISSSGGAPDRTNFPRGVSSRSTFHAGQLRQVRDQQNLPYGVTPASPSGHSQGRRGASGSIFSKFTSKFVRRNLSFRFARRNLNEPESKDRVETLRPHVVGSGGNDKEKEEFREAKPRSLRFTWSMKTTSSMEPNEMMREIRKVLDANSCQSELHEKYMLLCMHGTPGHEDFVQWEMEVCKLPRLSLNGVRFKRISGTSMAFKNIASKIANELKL

residual activity ([1]; compound 1.0 µM): 95%
residual activity ([1]; compound 10.0 µM): 90%
residual activity ([2]; compound 1.0 µM): 5%
residual activity ([2]; compound 10.0 µM): 3%
residual activity ([3]; compound 1.0 µM): 35%
residual activity ([3]; compound 10.0 µM): 35%
residual activity ([4]; compound 1.0 µM): 9%
residual activity ([4]; compound 10.0 µM): 6%
residual activity [5]: 83%
residual activity ([6]; compound 1.0 µM): 31%
residual activity ([6]; compound 10.0 µM): 41%
residual activity ([7]; compound 1.0 µM): 73%
residual activity ([7]; compound 10.0 µM): 81%
residual activity ([8]; compound 1.0 µM): 19%
residual activity ([8]; compound 10.0 µM): 19%
residual activity ([9]; compound 1.0 µM): 92%
residual activity ([9]; compound 10.0 µM): 87%
residual activity ([10]; compound 1.0 µM): 80%
residual activity ([10]; compound 10.0 µM): 62%
residual activity ([11]; compound 1.0 µM): 19%
residual activity ([11]; compound 10.0 µM): 7%
residual activity ([12]; compound 1.0 µM): 33%
residual activity ([12]; compound 10.0 µM): 31%
residual activity ([13]; compound 1.0 µM): 62%
residual activity ([13]; compound 10.0 µM): 50%
residual activity ([14]; compound 1.0 µM): 21%
residual activity ([14]; compound 10.0 µM): 17%
residual activity ([15]; compound 1.0 µM): 90%
residual activity ([15]; compound 10.0 µM): 80%
residual activity ([16]; compound 1.0 µM): 13%
residual activity ([16]; compound 10.0 µM): 6%
residual activity ([17]; compound 1.0 µM): 94%
residual activity ([17]; compound 10.0 µM): 71%
residual activity ([18]; compound 1.0 µM): 39%
residual activity ([18]; compound 10.0 µM): 35%
residual activity ([19]; compound 1.0 µM): 34%
residual activity ([19]; compound 10.0 µM): 18%
residual activity ([20]; compound 1.0 µM): 91%
residual activity ([20]; compound 10.0 µM): 85%
residual activity ([21]; compound 1.0 µM): 75%
residual activity ([21]; compound 10.0 µM): 82%
residual activity ([22]; compound 1.0 µM): 101%
residual activity ([22]; compound 10.0 µM): 77%
residual activity ([23]; compound 1.0 µM): 87%
residual activity ([23]; compound 10.0 µM): 66%
residual activity ([24]; compound 1.0 µM): 99%
residual activity ([24]; compound 10.0 µM): 85%
residual activity ([25]; compound 1.0 µM): 47%
residual activity ([25]; compound 10.0 µM): 35%
residual activity ([26]; compound 1.0 µM): 93%
residual activity ([26]; compound 10.0 µM): 77%
residual activity ([27]; compound 1.0 µM): 53%
residual activity ([27]; compound 10.0 µM): 41%
residual activity ([28]; compound 1.0 µM): 98%
residual activity ([28]; compound 10.0 µM): 85%
residual activity ([29]; compound 1.0 µM): 41%
residual activity ([29]; compound 10.0 µM): 39%
residual activity ([30]; compound 1.0 µM): 47%
residual activity ([30]; compound 10.0 µM): 34%
residual activity ([31]; compound 1.0 µM): 78%
residual activity ([31]; compound 10.0 µM): 75%
residual activity ([32]; compound 1.0 µM): 89%
residual activity ([32]; compound 10.0 µM): 91%
residual activity ([33]; compound 1.0 µM): 50%
residual activity ([33]; compound 10.0 µM): 28%
residual activity ([34]; compound 1.0 µM): 103%
residual activity ([34]; compound 10.0 µM): 78%
residual activity ([35]; compound 1.0 µM): 30%
residual activity ([35]; compound 10.0 µM): 28%
SMILES: COc1cc2ncn(-c3cc(OCc4ccccc4S(C)(=O)=O)c(C#N)s3)c2cc1OC
